Assay results as given in EP0974362A1, “DRUGS CONTAINING ENZYME INHIBITORS AS THE ACTIVE INGREDIENT” (CHUGAI SEIYAKU KABUSHIKI KAISHA, priority 1997, dated 1998).
Like-named read-outs stand apart in the source and are kept apart here.

Assays:
[1] = target: T1, adenylosuccinate synthase (Oryctolagus cuniculus, UniProt G1TGN8); assay: adenylosuccinate synthase inhibition (change of absorbance at 285 nm with time); assay type: biochemical
T1 sequence (G1TGN8 with tags, fused parts or gaps): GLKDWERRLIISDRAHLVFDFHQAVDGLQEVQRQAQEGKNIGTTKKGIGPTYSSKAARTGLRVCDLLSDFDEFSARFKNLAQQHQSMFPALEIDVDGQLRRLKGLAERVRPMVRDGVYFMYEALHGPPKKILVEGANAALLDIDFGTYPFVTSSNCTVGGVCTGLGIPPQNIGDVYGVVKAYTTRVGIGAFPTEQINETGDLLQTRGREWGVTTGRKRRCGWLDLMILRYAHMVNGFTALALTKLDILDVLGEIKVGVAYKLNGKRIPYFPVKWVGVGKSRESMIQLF
Excerpt: As existing adenylosuccinate synthase inhibitors, hydantocidin-5'-monophosphate and hadacidin were chosen and compared for their level of enzyme inhibitory activity. Hydantocidin-5'-monophosphate was synthesized by debenzylating an intermediate synthesized by the method of Mio et al. (Tetrahedron, 47, 2133-2144, 1991), [2R, 3R, 4R, 5S]-6-N-acetyl-2-benzyloxymethyl-3,4-isopropylidene-1-oxa-6,8-diazaspiro[4,4]nonane-7,9-dione (Compound 24) and then converting it into its diphenyl phosphate ester, followed by deacetonidation, deacetylation and dephenylation by catalytic reduction. Hadacidin was synthesized by the method of Jahngen-Rossomand (Synth. Commun. 12, 601-606, 1982). Adenylosuccinate synthase was purified from rabbit muscles by the method of Fischer et al. (Methods in Enzymol. LI, 207-213). Each inhibitor (hydantocidin-5'-monophosphate or hadacidin at a final concentration of 1µM-1mM) (10 µl) and a substrate solution (50 mM HEPES, pH 7.3, 1 mM MgCl2, 0.2 mM GTP, 0.2 mM IMP, 2.5 mM Asp [each final concentration]) (60 µl) were added to adenylosuccinate synthase (10 µl) added dropwise into a microspectroscopic cell, and mixed together, then the microspectroscopic cell was immediately set in a spectrophotometer BECKMAN DU650 (Beckman) to determine change of absorbance at 285 nm with time for a period of 2 to 5 minutes after the reaction was started.

[2] = tested on: CCRF-CEM cells lacking MTAP activity; assay: cell growth, MTT method; assay type: cell-based, human
Description: (§1) CCRF-CEM cells lacking MTAP activity and Raji cells having MTAP activity suspended in a modified MEM Zn^++ medium (GIBCO BRL) containing 10% dialyzed horse serum (GIBCO BRL) pretreated at 56°C for 30 minutes were plated on 96-well microplates at concentrations of 1.5 x 10^5 cells/ml and 5 x 10^4 cells/ml, respectively, and adenylosuccinate synthase inhibitors (hydantocidin-5'-monophosphate and hadacidin at a final concentration of 1 µM-1mM) were added to 100 µl/well in the presence or absence of a substrate for MTAP, MTA (final concentration 10 µM). After incubation in the presence of 5% CO2 at 37°C for 2 days, the survival cell number was counted by the MTT method (J. Immunol. Methods, 65, 55-63, 1983) (using Cell Titer 96® Aqueous Non-Radioactive Cell Proliferation Assay [Promega]) to assess effects on cell growth.

[3] = tested on: Raji cells having MTAP activity; assay: cell growth, MTT method; assay type: cell-based, human
Description: as §1

[4] = tested on: human glioma cell line A-172 lacking MTAP activity; assay: cell growth, MTT method, 3 days incubation; assay type: cell-based; settings: Fig. 4A
Description: (§2) Cell extracts were reacted with [8-^14C] MTA, a substrate for MTAP, and the reaction solutions were partially developed by thin-layer chromatography to visualize spots corresponding to [^14C] adenine produced by the action of MTAP in the presence of [8-^14C] […] The same experiment was performed as for Raji cells in Fig. 3 except that incubation was performed for 3 days. […] The same experiment was performed as for Raji cells in Fig. 3 except that incubation was performed for 3 days and that [^3H] thymidine uptake for 5 hours was assayed. […]
as §1

[5] = tested on: human glioma cell line T98G having MTAP activity; assay: cell growth, MTT method, 3 days incubation; assay type: cell-based; settings: Fig. 4B
Description: as §2, §1

[6] = tested on: human non-small cell lung cancer cell line A549; assay: cell growth, [3H] thymidine uptake; assay type: cell-based; settings: 3 days incubation; [3H] thymidine uptake for 5 hours; Fig. 5A
Description: as §2, §1

[7] = tested on: human pancreatic cancer cell line BxPC-3; assay: cell growth, [3H] thymidine uptake; assay type: cell-based; settings: 3 days incubation; [3H] thymidine uptake for 5 hours; Fig. 5B
Description: as §2, §1

[8] = absence of MTA, compared with CCRF-CEM in presence of MTA, 2 days

IC50 ([1]; enzyme purified from rabbit muscles; 0.2 mM GTP, 0.2 mM IMP, 2.5 mM Asp, pH 7.3; read-out: IC50 (inhibited adenylosuccinate synthase activity)) [µM]	SMILES	IC50 ([1]; read-out: IC50 (inhibited adenylosuccinate synthase activity); enzyme purified from rabbit muscles; 0.2 mM GTP, 0.2 mM IMP, 2.5 mM Asp, pH 7.3) [µM]	IC50 ([2]; Homo sapiens, CCRF-CEM, 48 h, read-out: IC50 (cytotoxicity)) [µM]	level of cytotoxicity in the absence of MTA [2, 8]	cytotoxicity ([3]; MTA added (final concentration 10 µM), 2 days incubation)	level of cytotoxicity in the absence of MTA [3, 8]	toxicity [4]	toxicity [5]	growth inhibitory effects [6]	growth inhibitory effects [7]
–	O=C1NC(=O)[C@@]2(N1)O[C@H](COP(=O)(O)O)[C@@H](O)[C@H]2O [hydantocidin-5'-monophosphate]	0.03	30	comparable	did not show cytotoxicity	comparable	showed selective toxicity	showed selective toxicity	showed growth inhibitory effects	showed growth inhibitory effects
10	O=CN(O)CC(=O)O [hadacidin]	–	–	–	–	–	–	–	–	–
